Read-outs that look alike come from different tables or passages of the source.
Columns and labels:
[1] = tested on: coagulation cascade (FXa, FIIa, FXI inhibition); test: Clotting time of inhibitor-spiked blood samples on addition of buffer, FXa or FIIa (FIG. 33B); conditions: for clotting time, control condition: no exogenous factor added, contact activation pathway activator; for clotting time upon addition of exogenous FIIa: two concentrations of FIIa; for clotting time upon addition of exogenous FXa: two concentrations of FXa
Method: The control condition (where no exogenous factor is added) utilizes an activator of the contact activation pathway to activate FXII to FXIIa. FIG. 33B is a bar graph showing the clotting time responses to the addition of buffer (control), two concentrations of FXa, and two concentrations of FIIa. […] The amount of exogenous FIIa added to the sample was inadequate to overcome all of the FIIa inhibition present in the sample. In these examples in FIG. 33B, when a sample's clotting time normalizes to the negative control clotting time, such a result is also described as an “unaffected” clotting time in the figures depicting the pathways.

FXI = FXI (Homo sapiens, UniProt P03951); test: Clotting time of inhibitor-spiked whole blood samples on addition of exogenous FXI (FIG. 33A, 33C); conditions: FIG. 33C; FXI inhibitor at Conc 1<Conc 2<Conc 3
Method: FIG. 33A provides representative clotting-curves of whole blood samples spiked with a concentration of FXI inhibitor (inh) (Conc 1<Conc 2<Conc 3); no inhibitor was added to the negative control. The curves show the samples' respective changes in clotting time as a response to the addition of increasing concentrations of exogenous FXI.
FIG. 33C reports the effect of the addition of exogenous FXI on the clotting time of various samples. In this example, the negative control, containing no inhibitor, has an unaffected clotting time with the addition of FXI.

[2] = PT and INR of patients on FXa-I versus controls; type: in vivo, human; conditions: patients documented to be on FXa-I; significance p<0.05
From the text: FIGS. 18A-18C illustrate prothrombin time (PT) and international normalized ratio (INR) is sensitive but not specific for FXa-I anticoagulation. Both PT and INR were compared between control patients and patients documented to be on FXa-I. Abnormal PT was defined as >14 seconds and abnormal INR was defined as >1.2. […] One-way ANOVA was used to compare normal and abnormal controls with both rivaroxaban and apixaban. Significance was defined as p<0.05.

Factor Xa (FXa) = Factor Xa (FXa) (Homo sapiens, UniProt P00742); test: Microfluidic clotting-curve assay, plasma spiked with FXa inhibitor, FXa agonist gradient; type: biochemical
From the text: (§1) A general protocol for performing the assay according to an embodiment of the invention is as follows: • a) Add together sample, agonist, +/−calcium, +/−clot detection agent • i. Calcium to a final concentration between 0.005-0.05 M (This concentration is particularly suitable for use with 3.2% buffered sodium citrate. If another anticoagulant is used, the concentration of calcium may not be 0.02 M.) • ii. Clot detection agents can include fluorescent labeled fibrinogen, magnets, beads (may be fluorescent or colored) • b) Load into microfluidic device • i. See, e.g., FIGS. 1A-1D, 2A and 2B for examples of input loading configuration and order • c) Temperature control • i. Room temperature • ii. May increase up to 37° C.
(§2) In an example, the process of clot detection can include the following procedural steps: • a) A plasma sample is pre-mixed to include: 6 μL plasma+0.6 μL agonist (10% volume to sample)+0.6 μL Calcium (stock 200 mM, 10% volume to sample)+0.6 μL Fibrinogen (this can vary in concentration, in general <10% volume of sample).
(§3) The time it takes for each of the combinations to form a clot is then plotted. […] Concentration of the agonist (FXa for FIGS. 7A-7C, and FIIa for FIG. 7D) is plotted on the X-axis for each of the figures. The units on the X-axis “ng/mL” refer to ng×10^3/mL.

FXa = target: T1, FXa (Homo sapiens, UniProt P00742); test: Clotting curves of citrated plasma from emergency department patients on FXa-I; type: in vivo; conditions: patient plasma samples
T1 construct: Citrated plasma samples were collected from patients; from tissue; host or cells: citrated plasma of patients
Method: Citrated plasma samples were collected from patients admitted into the Massachusetts General Hospital Emergency Department. All plasma samples had clinician-ordered coagulation tests (PT/INR, aPTT, DTT, or other). Patient samples were evaluated using an embodiment of the assay described herein. Patient medical records were reviewed for the administration of history of anticoagulants.
Clotting times were compared at various agonist concentrations for all the patient groups to construct clotting curves.

FIIa = FIIa (Homo sapiens, UniProt P00734)
From the text: as §1, §2, §3

[3] = tested on: contact activation pathway (intrinsic pathway); test: Clotting times of control and factor-deficient plasmas with exogenous coagulation factors (FIG. 25); type: biochemical
From the text: FIG. 25 is a table providing representative clotting times (minutes:seconds) for various plasma samples in the presence of exogenous coagulation factors. […] The clotting time for the control plasma, with no exogenous factor added (negative control), represents the clotting time based on activation of the contact activation pathway (intrinsic pathway); this clotting time can be designated as normal clotting time. […] The clotting time of the FVIII-deficient plasma decreases with the addition of FVIII or FIXa. […] The clotting time of FIX-deficient plasma decreases with the addition of exogenous FIX or FIXa. In all plasma samples, exogenous FXa is used as a positive control to confirm the ability of the plasma sample to clot. FIIa can also be used for this purpose.

Factor IX = Factor IX (Homo sapiens, UniProt P00740); test: Clotting curve, Factor IX added to FIX-deficient plasma or plasma with anti-Factor IX antibodies (FIG. 26); type: biochemical
From the text: It should be understood that the use of exogenous factor addition to a plasma sample may not be able to differentiate between deficiency and low quantities of inhibitors, for example, if the concentration of the inhibitor is low enough such that a physiological level of the factor is able to overcome the functional inhibition resulting in a normalized clotting time. Additionally, the inhibitor detected using the clotting time approach is a functional inhibitor such that the inhibitor decreases the factor's ability to propagate a blood clot.

Factors IIa and Xa = test: Whole blood clot detection in parallel microfluidic channels pre-coated with FXa; conditions: whole blood with unfractionated heparin, 10 minutes
Method: FIGS. 4A and 4B are fluorescent images illustrating clot detection using whole blood in a parallel microfluidic channel device 410 according to an example embodiment. Microfluidic channels 420 were pre-coated with agonist, Factor Xa, at various concentrations (7.5 ng/ml, 75 ng/ml, 750 ng/ml; units “ng/mL” refer to ng×10^3/mL) or with buffer alone (negative control). The fluorescent images are taken at one time point (10 minutes). Microfluidic channels were washed with buffer prior to use to leave only bound FXa within the microfluidic channel. Fresh whole blood was placed into each input port and the blood was drawn in through capillary action. The blood was left to flow for 10 minutes and then the channel was gently washed with buffer. Depicted is a brightfield image of two samples evaluated. […] Unfractionated heparin inhibits Factors IIa and Xa in an antithrombin III-dependent fashion, which is why the addition of these factors at appropriate concentrations can help recover the clotting capability of the sample.

Sequence of Factor Xa (FXa) (P00742 235-488 limits assumed): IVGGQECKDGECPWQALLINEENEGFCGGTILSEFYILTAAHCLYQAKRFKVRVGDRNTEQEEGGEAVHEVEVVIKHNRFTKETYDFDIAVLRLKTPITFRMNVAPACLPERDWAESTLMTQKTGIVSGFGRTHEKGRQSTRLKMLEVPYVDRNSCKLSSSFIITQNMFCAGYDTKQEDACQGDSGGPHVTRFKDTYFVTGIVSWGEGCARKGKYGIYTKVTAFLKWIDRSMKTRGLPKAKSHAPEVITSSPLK
Sequence of Factor Xa (FXa) (P00742 41-179 partner limits assumed): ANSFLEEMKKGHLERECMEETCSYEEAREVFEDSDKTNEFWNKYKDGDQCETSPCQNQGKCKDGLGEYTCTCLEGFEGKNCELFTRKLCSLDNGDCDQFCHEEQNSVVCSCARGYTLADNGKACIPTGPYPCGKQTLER
Sequence of Factor IX (P00740 29-461 limits assumed): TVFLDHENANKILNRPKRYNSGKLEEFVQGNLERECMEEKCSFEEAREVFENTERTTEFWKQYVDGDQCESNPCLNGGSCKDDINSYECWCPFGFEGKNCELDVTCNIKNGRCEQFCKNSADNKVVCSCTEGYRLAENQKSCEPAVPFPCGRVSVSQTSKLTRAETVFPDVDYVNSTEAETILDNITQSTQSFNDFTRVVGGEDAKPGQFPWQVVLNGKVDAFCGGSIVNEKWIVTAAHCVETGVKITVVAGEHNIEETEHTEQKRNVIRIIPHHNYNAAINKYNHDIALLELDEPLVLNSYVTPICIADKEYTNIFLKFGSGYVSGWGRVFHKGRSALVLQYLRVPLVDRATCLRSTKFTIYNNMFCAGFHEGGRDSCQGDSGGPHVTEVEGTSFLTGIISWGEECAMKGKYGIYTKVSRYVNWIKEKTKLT
T1 sequence (P00742 235-488 limits assumed): as the sequence (P00742 235-488 limits assumed) above
T1 sequence (P00742 41-179 partner limits assumed): as the sequence (P00742 41-179 partner limits assumed) above
Sequence of FXI (P03951 19-625, species assumed): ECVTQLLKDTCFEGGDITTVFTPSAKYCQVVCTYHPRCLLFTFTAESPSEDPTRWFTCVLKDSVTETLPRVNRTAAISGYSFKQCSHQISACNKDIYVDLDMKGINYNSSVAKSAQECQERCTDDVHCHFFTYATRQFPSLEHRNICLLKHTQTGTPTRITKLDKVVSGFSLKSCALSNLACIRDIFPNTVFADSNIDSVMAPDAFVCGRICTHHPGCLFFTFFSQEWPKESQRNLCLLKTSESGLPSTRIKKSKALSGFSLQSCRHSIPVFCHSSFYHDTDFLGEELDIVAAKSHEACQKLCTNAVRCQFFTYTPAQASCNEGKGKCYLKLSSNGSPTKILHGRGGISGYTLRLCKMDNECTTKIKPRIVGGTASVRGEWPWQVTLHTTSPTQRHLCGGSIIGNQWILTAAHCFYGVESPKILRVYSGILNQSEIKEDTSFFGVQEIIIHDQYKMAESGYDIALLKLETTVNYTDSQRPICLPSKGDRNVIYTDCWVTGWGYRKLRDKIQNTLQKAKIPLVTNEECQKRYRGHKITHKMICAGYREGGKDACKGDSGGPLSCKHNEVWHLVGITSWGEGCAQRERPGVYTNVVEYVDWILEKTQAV

Row | Molecule | clotting time, control condition [1] | clotting time upon addition of exogenous FIIa [1] | clotting time upon addition of exogenous FXa [1] | PT and INR compared to abnormal controls (one-way ANOVA) [2] | clotting time upon addition of exogenous factor ([3]; FIX-deficient plasma) | clotting time upon addition of exogenous factor ([3]; FVIII-deficient plasma) | clotting time upon addition of exogenous factor ([3]; FXI-deficient plasma) | clotting time upon addition of exogenous factor ([3]; control (normal) plasma) | further results
1 | COc1ccc(-n2nc(C(N)=O)c3c2C(=O)N(c2ccc(N4CCCCC4=O)cc2)CC3)cc1 [Apixaban] | prolongation of clotting time | shortened and normalized clotting time | concentration-dependent clotting-time response | no significance |  |  |  |  | clotting time with addition of exogenous FXI (FXI): prolongation in clotting time
2 | O=C(NC[C@H]1CN(c2ccc(N3CCOCC3=O)cc2)C(=O)O1)c1ccc(Cl)s1 [Rivaroxaban] |  |  |  | no significance |  |  |  |  | clot formation time versus negative control (Factor Xa (FXa); 250 ng/mL Rivaroxaban, FXa agonist down to 375 ng×10^3/mL): significantly longer than the negative control but lower than 500 ng/mL; agonist (FXa) concentration down to which clot formation detected in <[…] (Factor Xa (FXa); 500 ng/ml Rivaroxaban): 750 ng×10^3/mL; clot formation detection time (Factor Xa (FXa); 500 ng/ml Rivaroxaban, FXa agonist down to 750 ng×10^3/mL): < 2.5 min; clotting times at various agonist concentrations, patient group versus control group (FXa): very different from the control group
3 | Dabigatran | prolongation of clotting time | concentration-dependent change in clotting time | relatively small concentration-dependent change in clotting time |  |  |  |  |  | clot formation detection time (FIIa; 250 ng/mL Dabigatran, FIIa agonist down to 710 ng×10^3/mL): < 2.5 min; clot formation detection time (FIIa; 500 ng/ml Dabigatran, FIIa agonist down to 710 ng×10^3/mL): < 2.5 min; clot formation detection time (FIIa; <25 ng/ml Dabigatran, FIIa agonist down to 71 ng×10^3/mL): < 2.5 min
4 | FIX: exogenous coagulation Factor IX, inactive form |  |  |  |  | decreases | prolonged clotting time | prolonged clotting time | slight decrease in clotting time | concentration of added factor needed for normal clotting time (Factor IX; Factor IX-deficient plasma): requires a physiological concentration of replacement factor; concentration of added factor needed to decrease clotting time (Factor IX; plasma containing anti-Factor IX antibodies): requires supra-physiological concentrations of the factor
5 | FXI: exogenous coagulation Factor XI, inactive form |  |  |  |  | prolonged clotting time | prolonged clotting time | decreases | slight decrease in clotting time | 
6 | unfractionated heparin |  |  |  |  |  |  |  |  | clot formation in negative control channel (buffer alone) (Factors IIa and Xa): minimal clot formation; clot formation in FXa-coated channels (Factors IIa and Xa; FXa 7.5, 75, 750 ng×10^3/mL): gradient of clot formation dependent on the concentration of FXa in the channel
